# In patent publication US20070203091A1, “Methods and therapeutic compositions for improving liver, blood flow and skeletal muscle functions in advanced diseases and aging” (priority 2006, published 2007):
# Legend:
# [1] = ATP pharmacokinetics: initial ATP release rate from red blood cells into blood plasma, Phase I study; format: in vivo, human
# Protocol: The solution was administered by continuous intravenous infusions using an Ivac or similar infusion device through venous access in a peripheral vein. If venous access was a problem, either a Hickman catheter or its equivalent, or an Infusaport or its equivalent was inserted to provide vascular access.
# The 50 μg/kg/min dose could be reduced to 25 μg/kg/min if adverse effects occurred. […] Succeeding infusions in that patient were at the infusion dose tolerated at the end of the previous treatment. If adverse events occurred in patients being infused at 25 μg/kg/min, the infusions were terminated and the patient received no additional infusions.
# [2] = Cachexia markers Part I: serum albumin, pre-albumin, C-Reactive Protein, Phase I study; format: in vivo, human; conditions: ITT
# Excerpt: The data for albumin, LDH and Bilirubin support claims reciting improvement in liver function by claimed treatment of a human host in need thereof. Serum LDH levels are an established strong independent negative prognostic factor, inversely related to survival in a great variety of adverse clinical conditions. In advanced refractory cancers, high LDH and low Karnofsky's performance status are among the strongest established independent negative prognostic factors of survival and quality of life (29).
# [3] = Week 1 (Infusion 1), baseline, N=15
compound,measurement,setting,value
"Nc1ncnc2c1ncn2[C@@H]1O[C@H](COP(=O)(O)OP(=O)(O)OP(=O)(O)O)[C@@H](O)[C@H]1O [ATP, adenosine 5′-triphosphate]",Initial ATP Release Rates Mean,"[1]; Week 1 (infusion 1), 4 hours into infusion",33.407 nM/min
same,Initial ATP Release Rates Mean,"[1]; Week 1 (infusion 1), 8 hours (before the end)",47.224 nM/min
same,Initial ATP Release Rates Mean,"[1]; Week 1 (infusion 1), 8.25 hours",10.400 nM/min
same,Initial ATP Release Rates Mean,"[1]; Week 1 (infusion 1), 9 hours",25.408 nM/min
same,Initial ATP Release Rates Mean,"[1]; Week 1 (infusion 1), 10 hours",13.959 nM/min
same,Initial ATP Release Rates Mean,"[1]; Week 1 (infusion 1), 11 hours",14.743 nM/min
same,Initial ATP Release Rates Mean,"[1]; Week 1 (infusion 1), 12 hours",12.565 nM/min
same,Initial ATP Release Rates Mean,"[1]; Week 1 (infusion 1), 14 hours",12.067 nM/min
same,Initial ATP Release Rates Mean,"[1]; Week 1 (infusion 1), 16 hours",15.331 nM/min
same,Initial ATP Release Rates Mean,"[1]; Week 1 (infusion 1), 20 hours",20.063 nM/min
same,Initial ATP Release Rates Mean,"[1]; Week 1 (infusion 1), 24 hours",17.452 nM/min
same,Initial ATP Release Rates Mean,"[1]; Week 1 (infusion 1), Time 0 (pre-infusion)",15.469 nM/min
same,Initial ATP Release Rates Mean,"[1]; Week 1 (infusion 1), […]",41.353 nM/min
same,Initial ATP Release Rates Mean,"[1]; Week 3 (Infusion 3), 4 hours into infusion",55.414 nM/min
same,Initial ATP Release Rates Mean,"[1]; Week 3 (Infusion 3), 8 hours before the end",48.283 nM/min
same,Initial ATP Release Rates Mean,"[1]; Week 3 (Infusion 3), 8.25 hours",13.400 nM/min
same,Initial ATP Release Rates Mean,"[1]; Week 3 (Infusion 3), 9 hours",34.992 nM/min
same,Initial ATP Release Rates Mean,"[1]; Week 3 (Infusion 3), 10 hours",27.342 nM/min
same,Initial ATP Release Rates Mean,"[1]; Week 3 (Infusion 3), 11 hours",18.888 nM/min
same,Initial ATP Release Rates Mean,"[1]; Week 3 (Infusion 3), 12 hours",14.660 nM/min
same,Initial ATP Release Rates Mean,"[1]; Week 3 (Infusion 3), 14 hours",10.390 nM/min
same,Initial ATP Release Rates Mean,"[1]; Week 3 (Infusion 3), 16 hours",10.223 nM/min
same,Initial ATP Release Rates Mean,"[1]; Week 3 (Infusion 3), 20 hours",11.708 nM/min
same,Initial ATP Release Rates Mean,"[1]; Week 3 (Infusion 3), 24 hours",15.880 nM/min
same,Initial ATP Release Rates Mean,"[1]; Week 3 (Infusion 3), Time 0 (pre-infusion)",18.228 nM/min
same,Initial ATP Release Rates Mean,"[1]; Week 3 (Infusion 3), […]",38.780 nM/min
same,Initial ATP Release Rates Mean,"[1]; Week 8 (infusion 8), 4 hours into infusion",28.700 nM/min
same,Initial ATP Release Rates Mean,"[1]; Week 8 (infusion 8), 8 hours (before the end)",27.930 nM/min
same,Initial ATP Release Rates Mean,"[1]; Week 8 (infusion 8), 9 hours",20.167 nM/min
same,Initial ATP Release Rates Mean,"[1]; Week 8 (infusion 8), 10 hours",5.803 nM/min
same,Initial ATP Release Rates Mean,"[1]; Week 8 (infusion 8), 11 hours",15.700 nM/min
same,Initial ATP Release Rates Mean,"[1]; Week 8 (infusion 8), 12 hours",14.150 nM/min
same,Initial ATP Release Rates Mean,"[1]; Week 8 (infusion 8), 14 hours",19.620 nM/min
same,Initial ATP Release Rates Mean,"[1]; Week 8 (infusion 8), 16 hours",11.680 nM/min
same,Initial ATP Release Rates Mean,"[1]; Week 8 (infusion 8), 20 hours",14.520 nM/min
same,Initial ATP Release Rates Mean,"[1]; Week 8 (infusion 8), 24 hours",16.200 nM/min
same,Initial ATP Release Rates Mean,"[1]; Week 8 (infusion 8), Time 0 (pre-infusion)",10.967 nM/min
same,Initial ATP Release Rates Mean,"[1]; Week 8 (infusion 8), […]",11.267 nM/min
same,average increases in Initial ATP Release Rates (from Red Blood Cells),"[1]; patients 502-505, time 0 to 8 hours",200-400%
same,"C-Reactive Protein, Change from Baseline, Mean",[2]; [3],0.0 mg/dL
same,"C-Reactive Protein, Change from Baseline, Median",[2]; [3],0.0 mg/dL
same,"C-Reactive Protein, Observed Values, Mean",[2]; [3],5.1 mg/dL
same,"C-Reactive Protein, Observed Values, Median",[2]; [3],3.4 mg/dL
same,"Pre-albumin, Change from Baseline, Mean",[2]; [3],0.0 mg/dL
same,"Pre-albumin, Change from Baseline, Median",[2]; [3],0.0 mg/dL
same,"Pre-albumin, Observed Values, Mean",[2]; [3],19.7 mg/dL
same,"Pre-albumin, Observed Values, Median",[2]; [3],18.0 mg/dL
same,"Serum Albumin, Change from Baseline, Mean",[2]; [3],0.0 g/dL
same,"Serum Albumin, Change from Baseline, Median",[2]; [3],0.0 g/dL
same,"Serum Albumin, Observed Values, Mean",[2]; [3],3.3 g/dL
same,"Serum Albumin, Observed Values, Median",[2]; [3],3.4 g/dL
same,"Pre-albumin, Change from Baseline, Mean","[2]; Week 2 (Infusion 2), N=13",-1.2 mg/dL
same,"Pre-albumin, Change from Baseline, Median","[2]; Week 2 (Infusion 2), N=13",0.0 mg/dL
same,"Pre-albumin, Observed Values, Mean","[2]; Week 2 (Infusion 2), N=13",19.4 mg/dL
same,"Pre-albumin, Observed Values, Median","[2]; Week 2 (Infusion 2), N=13",17.0 mg/dL
same,"C-Reactive Protein, Change from Baseline, Mean","[2]; Week 2 (Infusion 2), N=14",0.1 mg/dL
same,"C-Reactive Protein, Change from Baseline, Median","[2]; Week 2 (Infusion 2), N=14",0.5 mg/dL
same,"C-Reactive Protein, Observed Values, Mean","[2]; Week 2 (Infusion 2), N=14",5.0 mg/dL
same,"C-Reactive Protein, Observed Values, Median","[2]; Week 2 (Infusion 2), N=14",3.3 mg/dL
same,"Serum Albumin, Change from Baseline, Mean","[2]; Week 2 (Infusion 2), N=14",-0.1 g/dL
same,"Serum Albumin, Change from Baseline, Median","[2]; Week 2 (Infusion 2), N=14",0.0 g/dL
same,"Serum Albumin, Observed Values, Mean","[2]; Week 2 (Infusion 2), N=14",3.2 g/dL
same,"Serum Albumin, Observed Values, Median","[2]; Week 2 (Infusion 2), N=14",3.2 g/dL
